Results published in patent US10058092B2, “Apparatus and method for controlled release of botanical fumigant pesticides” (priority 2012, dated 2018).
Several values for one entry are separate records, joined by “and”; a condition that tells them apart may be missing. Equal entries are not always repeated.

Experiments:
[1] = Volatilization monitoring by ultra-fast gas chromatograph inside empty moving box; assay type: physicochemical; conditions: from fumigant pesticide composition prototype, empty medium size box, 60-150 min and 23 h after closing
Method: The volatilization of the prototype of the fumigant pesticide composition was monitored inside empty moving boxes. […] Ten mL of the fumigant pesticide composition prototype was placed inside a 40 mL GC vial.
Volatile monitoring was performed at two steps. Step one started 60 minutes after the box was closed and volatile samples were collected every 5-minutes for 90 minutes. The second step started 23 hours after the box was closed and samples were collected every 5-minutes for 50 minutes.

[2] = Headspace volatilization of secondary metabolites by GCMS; assay type: physicochemical; conditions: share of total peak area
Method: In this study, a liquid fumigant pesticide formulation was prepared as follows: • (1) Base formula: rosemary oil (5 ml) • (2) Enhancement formula: rosemary oil high quality (0.5 ml); clove oil (0.05 ml); peppermint oil (0.075 ml) • (3) Carrier solvent: isopropyl alcohol (6 ml); isopropyl myristate (0.06 ml). Blending: • 3. The required amounts of base formula ingredients were drawn from individual stocks of chemicals via a laboratory pipette and were transferred into a 40 ml GC glass vial (2.5 cm diameter by 10 cm length) with a silicon septa. The tall vial was used to minimize surface area of liquid that is exposed to the air during preparation. The chemicals were added quickly (less than 10 second to transfer each chemical) in order to minimize exposure to air. Following the same instruction, the enhancement formula was prepared and added to the same vial. • 4. The carrier solvent was then poured over the base formula and enhancement formula inside the vial. The vial was closed immediately after the solvent was added. The base formula, enhancement formula and carrier solvent were mixed using a lab shaker for 15 seconds.
A sub-sample of the fumigant pesticide composition (0.5 ml) was placed inside a 1 ml GC vial. Three commercial samples of rosemary oil was also placed inside three separate 1 mL GC vials. Headspace volatilization of secondary metabolites from these four samples were compared using a gas chromatograph mass spectrometer (GCMS). The GCMS was programmed to only collect samples from the headspace above the liquid mixture of the chemicals in the vials. […] The GCMS was a Varian 3900 system with a Saturn 2100T ion trap mass-selective detector (Varian Inc., Walnut Creek, Calif.). The inventors used a WCOT fused silica 30 m Å˜0.25 mm i.d. column with a CP-Sil 8 CB low bleed MS coating (Varian Inc.), a 1 μL injection volume and pure helium as the carrier at 1.0 ml min-1. The temperature program used was 80° C. for 0.5 min, an increase of 8.0 $ Cmin-1 for 8.0 min, followed by an increase of 50° C. min-1 for 3.2 min. Cinnamic alcohol (Sigma, St Louis, Mo., USA) was used as an internal standard.

[3] = Commercial rosemary oil sample one
[4] = Commercial rosemary oil sample three
[5] = Commercial rosemary oil sample two
[6] = Pesticide fumigant formula of the present invention (0.5 ml in 1 ml GC vial)

Compound | pattern of volatilization [1] | % of secondary metabolite in headspace [2, 3] [%] | % of secondary metabolite in headspace [2, 4] | % of secondary metabolite in headspace [2, 5] [%] | % of secondary metabolite in headspace [2, 6] [%]
CC12CCC(CC1)C(C)(C)O2 [1,8-Cineole] | Unstable pattern with greater fluctuation at the end of trial | 57.05 | 36.95% | 21.53 | 46.78
CC1=CCC2C(C1)C2(C)C (centres unmarked) [3-Carene] |  | 1.88 |  |  | 
CC1(C)C2CCC1(C)C(O)C2 (centres unmarked) [Borneol] |  | 4.06 | 1.68% | 3.60 | 
CC(=O)OC1CC2CCC1(C)C2(C)C (centres unmarked) [Bornyl Acetate] |  | 2.70 | 2.54% |  | 
C=C1C2CCC(C2)C1(C)C (centres unmarked) [Camphene] | Fluctuation pattern with increasing levels at the tail end | 4.26 | 10.06% and 4.72% | 13.04 | 9.98
CC12CCC(CC1=O)C2(C)C (centres unmarked) [Camphor] | Fluctuation pattern with increasing levels at the tail end | 11.89 | 18.60% | 25.50 | 23.30
C=C(C)[C@H]1CC=C(C)CC1 [D-Limonene] | Fluctuation pattern with increasing levels at the tail end |  |  | 4.67 | 
C=CCc1ccc(O)c(OC)c1 [Eugenol] | Unstable pattern with greater fluctuation at the end of trial |  |  |  | 
CC1(C)[C@@H]2CC[C@@]1(C)[C@H](O)C2 [Isoborneol] |  | 1.74 |  | 2.28 | 
CC(=O)OC(C)C [Isopropyl acetate] |  |  |  | 3.25 | 
CC1=CC[C@@H](C(C)(C)O)CC1 [a-Terpineol] |  |  | 2.48% |  | 
CC1=CCC2CC1C2(C)C (centres unmarked) [a-pinene] | Complete inhibition pattern | 6.53 | 14.73% | 18.15 | 14.58
C=C1CCC2CC1C2(C)C (centres unmarked) [b-pinene] | Complete inhibition pattern | 8.00 | 6.22% | 5.43 | 5.35
CC(C)=CCC/C(C)=C/CO [geraniol] | Steady compounds |  |  |  | 
C=CC(C)(O)CCC=C(C)C (centres unmarked) [linalool] | Steady compounds |  |  |  | 
Cc1ccc(C(C)C)cc1 [p-Cymene] | Fluctuation pattern with increasing levels at the tail end | 1.89 | 2.01% | 2.56 | 
